ChEMBL document CHEMBL3991601, “The target landscape of clinical kinase drugs” (Science, 2017)
The source made the active and inactive calls. Rule as the data show it, for most assays here: actives have a measured Kd and inactives only a lower limit.

Columns and labels:
[1] = biological target: Calcium/calmodulin-dependent protein kinase kinase 2 (Homo sapiens, UniProt Q96RR4)
[2] = biological target: Ribosomal protein S6 kinase alpha-6 (Homo sapiens, UniProt Q9UK32)
[3] = biological target: Mitogen-activated protein kinase kinase kinase 4 (Homo sapiens, UniProt Q9Y6R4)
[4] = biological target: Serine/threonine-protein kinase 16 (Homo sapiens, UniProt O75716)
[5] = biological target: Ephrin type-A receptor 4 (Homo sapiens, UniProt P54764)
[6] = biological target: Adenosine kinase (Homo sapiens, UniProt P55263)
[7] = biological target: Ephrin type-A receptor 2 (Homo sapiens, UniProt P29317)
[8] = biological target: Serine/threonine-protein kinase B-raf (Homo sapiens, UniProt P15056)
[9] = biological target: T1, Serine/threonine-protein kinase TAO3 (Homo sapiens, UniProt Q9H2K8)
T1 sequence (Q9H2K8 whole entry): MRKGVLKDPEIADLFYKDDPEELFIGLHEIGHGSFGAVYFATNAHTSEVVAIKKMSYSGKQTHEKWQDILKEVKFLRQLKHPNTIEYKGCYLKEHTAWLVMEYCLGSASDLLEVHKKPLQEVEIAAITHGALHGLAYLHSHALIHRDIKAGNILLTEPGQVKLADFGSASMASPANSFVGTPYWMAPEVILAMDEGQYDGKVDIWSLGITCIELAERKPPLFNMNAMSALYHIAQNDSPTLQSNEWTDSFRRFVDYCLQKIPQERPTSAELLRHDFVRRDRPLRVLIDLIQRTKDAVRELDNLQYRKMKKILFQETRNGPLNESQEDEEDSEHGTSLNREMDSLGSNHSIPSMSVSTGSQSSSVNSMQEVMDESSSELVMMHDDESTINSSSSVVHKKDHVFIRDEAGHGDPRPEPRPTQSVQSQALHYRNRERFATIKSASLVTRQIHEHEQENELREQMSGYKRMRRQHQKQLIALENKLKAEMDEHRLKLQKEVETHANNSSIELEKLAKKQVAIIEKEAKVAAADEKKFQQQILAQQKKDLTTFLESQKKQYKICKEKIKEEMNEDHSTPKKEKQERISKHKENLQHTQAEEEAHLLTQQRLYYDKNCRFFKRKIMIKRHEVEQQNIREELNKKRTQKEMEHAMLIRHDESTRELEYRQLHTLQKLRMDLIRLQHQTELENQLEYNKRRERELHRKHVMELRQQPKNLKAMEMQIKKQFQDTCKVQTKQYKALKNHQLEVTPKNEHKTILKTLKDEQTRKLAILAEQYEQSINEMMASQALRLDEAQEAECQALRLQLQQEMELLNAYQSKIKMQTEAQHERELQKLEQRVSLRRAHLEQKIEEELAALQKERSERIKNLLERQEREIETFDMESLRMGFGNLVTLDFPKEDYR

[10] = biological target: cAMP-dependent protein kinase catalytic subunit beta (Homo sapiens, UniProt P22694)
[11] = biological target: Activated CDC42 kinase 1 (Homo sapiens, UniProt Q07912)
[12] = biological target: Serine/threonine-protein kinase PAK 2 (Homo sapiens, UniProt Q13177)
[13] = biological target: T2, RNA cytidine acetyltransferase (Homo sapiens, UniProt Q9H0A0)
T2 sequence (Q9H0A0 whole entry): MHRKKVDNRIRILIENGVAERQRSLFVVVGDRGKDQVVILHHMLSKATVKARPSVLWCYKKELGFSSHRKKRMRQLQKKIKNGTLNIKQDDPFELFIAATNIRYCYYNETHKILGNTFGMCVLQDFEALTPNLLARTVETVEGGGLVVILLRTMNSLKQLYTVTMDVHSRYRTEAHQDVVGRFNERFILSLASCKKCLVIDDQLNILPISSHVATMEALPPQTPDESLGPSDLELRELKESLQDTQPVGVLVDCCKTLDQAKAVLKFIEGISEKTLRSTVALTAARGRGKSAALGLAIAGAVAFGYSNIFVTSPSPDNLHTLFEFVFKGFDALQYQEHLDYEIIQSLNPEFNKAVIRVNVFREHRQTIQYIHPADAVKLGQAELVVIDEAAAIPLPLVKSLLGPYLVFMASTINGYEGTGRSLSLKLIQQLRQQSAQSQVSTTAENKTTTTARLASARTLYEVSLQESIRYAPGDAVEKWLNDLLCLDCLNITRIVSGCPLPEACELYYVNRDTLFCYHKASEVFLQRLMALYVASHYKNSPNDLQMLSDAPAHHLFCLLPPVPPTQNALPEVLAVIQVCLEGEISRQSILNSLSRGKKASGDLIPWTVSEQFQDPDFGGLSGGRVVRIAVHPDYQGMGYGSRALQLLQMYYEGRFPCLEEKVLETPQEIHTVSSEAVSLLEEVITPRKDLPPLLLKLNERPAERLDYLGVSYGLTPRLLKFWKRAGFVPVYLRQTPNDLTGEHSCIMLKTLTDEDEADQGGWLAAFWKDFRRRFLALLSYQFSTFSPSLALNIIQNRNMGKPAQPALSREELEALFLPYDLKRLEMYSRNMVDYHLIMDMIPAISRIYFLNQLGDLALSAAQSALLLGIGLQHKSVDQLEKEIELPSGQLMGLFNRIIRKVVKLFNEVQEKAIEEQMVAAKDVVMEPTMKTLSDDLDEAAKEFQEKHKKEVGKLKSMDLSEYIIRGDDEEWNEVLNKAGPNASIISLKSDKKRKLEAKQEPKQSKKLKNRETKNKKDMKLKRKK

[14] = biological target: T3, Dual specificity mitogen-activated protein kinase kinase 5 (Homo sapiens, UniProt Q13163)
T3 sequence (Q13163 whole entry): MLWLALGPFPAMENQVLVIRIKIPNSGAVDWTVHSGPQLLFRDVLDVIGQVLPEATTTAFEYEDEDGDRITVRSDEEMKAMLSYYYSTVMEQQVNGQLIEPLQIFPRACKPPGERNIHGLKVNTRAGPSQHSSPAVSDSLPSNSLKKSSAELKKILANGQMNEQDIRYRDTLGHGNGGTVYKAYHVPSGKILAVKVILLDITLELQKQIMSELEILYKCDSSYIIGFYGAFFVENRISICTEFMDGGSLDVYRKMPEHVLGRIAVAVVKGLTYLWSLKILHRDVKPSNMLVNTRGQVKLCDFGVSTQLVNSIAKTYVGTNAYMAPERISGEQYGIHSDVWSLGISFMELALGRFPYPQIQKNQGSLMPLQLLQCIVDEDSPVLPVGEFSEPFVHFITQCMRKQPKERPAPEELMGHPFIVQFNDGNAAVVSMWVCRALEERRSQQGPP
Also: in the data inactive means no Kd found up to 30 µM.

Mitogen-activated protein kinase kinase kinase 4, sequence (Q9Y6R4 whole entry): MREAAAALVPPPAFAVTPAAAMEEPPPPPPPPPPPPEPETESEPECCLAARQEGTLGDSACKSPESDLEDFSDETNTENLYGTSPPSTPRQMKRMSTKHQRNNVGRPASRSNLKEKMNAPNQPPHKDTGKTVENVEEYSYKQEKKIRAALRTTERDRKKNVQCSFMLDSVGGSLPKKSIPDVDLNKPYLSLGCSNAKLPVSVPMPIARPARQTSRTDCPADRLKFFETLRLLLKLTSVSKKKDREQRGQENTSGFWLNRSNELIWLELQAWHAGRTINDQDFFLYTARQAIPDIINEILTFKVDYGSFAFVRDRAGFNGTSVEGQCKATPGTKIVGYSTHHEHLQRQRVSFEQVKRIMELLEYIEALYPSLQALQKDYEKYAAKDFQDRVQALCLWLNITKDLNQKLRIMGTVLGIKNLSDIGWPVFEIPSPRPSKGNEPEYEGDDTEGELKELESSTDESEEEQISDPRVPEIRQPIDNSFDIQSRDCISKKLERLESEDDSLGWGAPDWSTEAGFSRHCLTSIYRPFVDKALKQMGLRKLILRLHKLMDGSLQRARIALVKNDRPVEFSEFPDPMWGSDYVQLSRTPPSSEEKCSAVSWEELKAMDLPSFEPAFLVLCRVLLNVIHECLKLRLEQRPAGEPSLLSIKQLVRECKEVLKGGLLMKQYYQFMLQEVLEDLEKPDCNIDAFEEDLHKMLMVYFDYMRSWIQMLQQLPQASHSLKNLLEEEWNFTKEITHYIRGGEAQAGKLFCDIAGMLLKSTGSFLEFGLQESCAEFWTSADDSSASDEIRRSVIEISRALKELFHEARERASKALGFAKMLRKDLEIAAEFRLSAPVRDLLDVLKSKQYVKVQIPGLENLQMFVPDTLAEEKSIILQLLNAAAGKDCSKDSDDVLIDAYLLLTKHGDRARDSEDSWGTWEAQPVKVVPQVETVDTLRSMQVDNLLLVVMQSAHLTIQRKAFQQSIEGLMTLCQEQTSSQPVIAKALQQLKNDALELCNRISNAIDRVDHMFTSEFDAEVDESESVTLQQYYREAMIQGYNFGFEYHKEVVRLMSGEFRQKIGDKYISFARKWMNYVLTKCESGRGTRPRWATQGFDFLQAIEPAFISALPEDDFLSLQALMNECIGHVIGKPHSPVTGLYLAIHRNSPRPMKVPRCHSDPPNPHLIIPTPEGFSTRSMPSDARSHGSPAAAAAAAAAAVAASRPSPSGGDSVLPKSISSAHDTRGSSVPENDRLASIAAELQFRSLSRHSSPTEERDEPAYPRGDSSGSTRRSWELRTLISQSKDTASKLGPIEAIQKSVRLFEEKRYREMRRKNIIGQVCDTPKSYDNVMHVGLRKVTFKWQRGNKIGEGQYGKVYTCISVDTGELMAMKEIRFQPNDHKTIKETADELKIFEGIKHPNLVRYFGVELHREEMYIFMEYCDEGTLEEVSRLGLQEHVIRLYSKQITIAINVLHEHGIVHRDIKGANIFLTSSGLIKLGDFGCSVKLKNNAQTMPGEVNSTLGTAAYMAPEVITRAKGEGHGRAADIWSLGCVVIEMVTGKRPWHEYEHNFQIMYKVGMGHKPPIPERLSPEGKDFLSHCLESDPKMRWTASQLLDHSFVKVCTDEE
Ephrin type-A receptor 2, sequence (P29317 whole entry): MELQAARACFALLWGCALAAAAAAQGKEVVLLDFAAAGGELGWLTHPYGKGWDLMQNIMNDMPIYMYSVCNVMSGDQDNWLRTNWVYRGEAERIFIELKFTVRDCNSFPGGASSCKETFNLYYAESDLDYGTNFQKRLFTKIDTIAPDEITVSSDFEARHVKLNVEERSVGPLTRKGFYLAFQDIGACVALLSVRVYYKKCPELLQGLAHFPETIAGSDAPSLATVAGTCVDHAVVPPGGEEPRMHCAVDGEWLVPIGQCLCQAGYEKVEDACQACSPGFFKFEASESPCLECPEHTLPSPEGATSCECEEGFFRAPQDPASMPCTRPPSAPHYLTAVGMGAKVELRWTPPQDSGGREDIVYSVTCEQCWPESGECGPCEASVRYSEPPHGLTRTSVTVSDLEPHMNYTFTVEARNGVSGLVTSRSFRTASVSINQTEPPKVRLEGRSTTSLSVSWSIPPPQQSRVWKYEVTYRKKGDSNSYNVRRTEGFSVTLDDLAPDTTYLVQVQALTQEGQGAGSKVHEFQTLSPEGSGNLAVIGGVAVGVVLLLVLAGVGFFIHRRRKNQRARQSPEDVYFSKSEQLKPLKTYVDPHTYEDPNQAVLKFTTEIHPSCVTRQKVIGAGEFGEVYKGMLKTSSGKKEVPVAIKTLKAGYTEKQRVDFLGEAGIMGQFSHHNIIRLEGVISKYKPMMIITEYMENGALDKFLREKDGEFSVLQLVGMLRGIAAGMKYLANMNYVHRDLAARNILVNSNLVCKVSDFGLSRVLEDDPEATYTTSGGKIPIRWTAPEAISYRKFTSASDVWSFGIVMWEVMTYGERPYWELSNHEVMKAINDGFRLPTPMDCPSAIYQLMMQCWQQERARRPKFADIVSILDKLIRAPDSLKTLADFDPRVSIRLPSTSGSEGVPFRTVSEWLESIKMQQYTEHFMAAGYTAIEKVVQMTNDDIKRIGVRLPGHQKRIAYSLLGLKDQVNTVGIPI
Calcium/calmodulin-dependent protein kinase kinase 2, sequence (Q96RR4 whole entry): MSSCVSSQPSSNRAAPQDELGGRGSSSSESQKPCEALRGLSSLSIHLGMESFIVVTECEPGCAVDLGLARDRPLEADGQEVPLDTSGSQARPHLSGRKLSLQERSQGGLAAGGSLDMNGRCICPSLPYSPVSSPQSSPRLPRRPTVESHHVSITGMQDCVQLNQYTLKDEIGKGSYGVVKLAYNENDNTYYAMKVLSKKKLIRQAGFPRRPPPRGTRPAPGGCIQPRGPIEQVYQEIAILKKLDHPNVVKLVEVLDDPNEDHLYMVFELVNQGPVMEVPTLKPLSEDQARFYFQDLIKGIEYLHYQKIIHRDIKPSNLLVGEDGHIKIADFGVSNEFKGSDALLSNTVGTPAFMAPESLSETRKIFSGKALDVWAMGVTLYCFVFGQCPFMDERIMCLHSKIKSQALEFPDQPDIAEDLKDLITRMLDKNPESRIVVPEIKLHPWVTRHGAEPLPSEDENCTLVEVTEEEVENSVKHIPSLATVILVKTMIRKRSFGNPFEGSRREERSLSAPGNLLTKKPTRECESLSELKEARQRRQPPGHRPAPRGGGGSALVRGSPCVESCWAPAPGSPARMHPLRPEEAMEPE
Ribosomal protein S6 kinase alpha-6, sequence (Q9UK32 whole entry): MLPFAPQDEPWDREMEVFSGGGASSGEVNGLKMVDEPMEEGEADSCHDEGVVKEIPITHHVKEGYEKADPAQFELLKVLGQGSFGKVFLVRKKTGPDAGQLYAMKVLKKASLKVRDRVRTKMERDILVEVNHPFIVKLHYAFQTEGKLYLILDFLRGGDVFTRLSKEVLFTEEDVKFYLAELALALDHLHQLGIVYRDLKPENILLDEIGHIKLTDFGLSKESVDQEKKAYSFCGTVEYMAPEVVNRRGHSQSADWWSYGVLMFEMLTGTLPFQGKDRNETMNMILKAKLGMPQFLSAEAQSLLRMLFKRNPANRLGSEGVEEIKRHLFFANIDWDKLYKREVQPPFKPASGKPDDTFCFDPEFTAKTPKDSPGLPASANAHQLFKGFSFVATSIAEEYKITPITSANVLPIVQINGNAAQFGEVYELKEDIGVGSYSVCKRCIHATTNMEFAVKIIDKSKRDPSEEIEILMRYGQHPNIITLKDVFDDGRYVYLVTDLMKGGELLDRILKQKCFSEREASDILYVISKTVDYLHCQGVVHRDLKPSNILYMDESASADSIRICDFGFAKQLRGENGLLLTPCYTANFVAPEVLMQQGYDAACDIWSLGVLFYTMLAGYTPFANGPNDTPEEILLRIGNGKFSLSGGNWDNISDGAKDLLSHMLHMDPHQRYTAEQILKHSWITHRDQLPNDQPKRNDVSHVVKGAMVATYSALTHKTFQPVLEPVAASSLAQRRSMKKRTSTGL
Activated CDC42 kinase 1, sequence (Q07912 whole entry): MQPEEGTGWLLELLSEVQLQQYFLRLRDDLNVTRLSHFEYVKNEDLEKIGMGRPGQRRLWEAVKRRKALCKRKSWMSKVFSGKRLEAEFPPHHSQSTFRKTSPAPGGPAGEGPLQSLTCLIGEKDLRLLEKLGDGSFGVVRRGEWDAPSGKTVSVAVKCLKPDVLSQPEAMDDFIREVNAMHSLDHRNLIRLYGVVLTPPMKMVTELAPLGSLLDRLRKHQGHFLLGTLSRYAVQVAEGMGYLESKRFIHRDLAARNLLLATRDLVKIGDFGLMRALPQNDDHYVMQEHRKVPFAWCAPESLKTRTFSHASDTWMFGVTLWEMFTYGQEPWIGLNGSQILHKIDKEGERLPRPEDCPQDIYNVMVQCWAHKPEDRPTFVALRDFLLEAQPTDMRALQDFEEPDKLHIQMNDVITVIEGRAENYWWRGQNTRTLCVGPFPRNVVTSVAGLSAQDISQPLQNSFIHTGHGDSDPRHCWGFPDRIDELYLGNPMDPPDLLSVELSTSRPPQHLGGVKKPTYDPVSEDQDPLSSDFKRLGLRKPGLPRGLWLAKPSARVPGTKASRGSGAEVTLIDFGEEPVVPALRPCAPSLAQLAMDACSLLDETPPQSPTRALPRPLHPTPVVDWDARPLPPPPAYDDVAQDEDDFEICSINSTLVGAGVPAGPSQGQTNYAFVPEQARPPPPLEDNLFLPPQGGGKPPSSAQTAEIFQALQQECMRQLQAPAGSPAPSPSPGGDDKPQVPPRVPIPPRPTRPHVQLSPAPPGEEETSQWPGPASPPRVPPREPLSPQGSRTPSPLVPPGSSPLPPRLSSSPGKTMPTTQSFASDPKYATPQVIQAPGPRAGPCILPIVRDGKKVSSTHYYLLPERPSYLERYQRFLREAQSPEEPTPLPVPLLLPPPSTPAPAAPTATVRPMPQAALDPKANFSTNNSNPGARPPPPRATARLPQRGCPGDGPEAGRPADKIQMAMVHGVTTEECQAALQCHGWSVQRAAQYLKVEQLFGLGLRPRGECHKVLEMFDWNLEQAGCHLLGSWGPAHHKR

Structure (SMILES)	Kd [1]	Kd [2]	Kd [3]	Kd [4]	Kd [5]	Kd [6]	Kd [7]	Kd [8]	Kd [9]	Kd [10]	Kd [11]	Kd [12]	Kd [13]	Kd [14]
Cn1cc(-c2ccc3nnc(C(F)(F)c4ccc5ncccc5c4)n3n2)cn1 [JNJ-38877605]	> 30 µM (inactive)	> 30 µM (inactive)	> 30 µM (inactive)	> 30 µM (inactive)	> 30 µM (inactive)	> 30 µM (inactive)	> 30 µM (inactive)	> 30 µM (inactive)	> 30 µM (inactive)	> 30 µM (inactive)	> 30 µM (inactive)	> 30 µM (inactive)	> 30 µM (inactive)	> 30 µM (inactive)
Cc1ccc(S(=O)(=O)Nc2nc3ccccc3nc2Nc2ccc3nsnc3c2)cc1	> 30 µM (inactive)	> 30 µM (inactive)	> 30 µM (inactive)	> 30 µM (inactive)	> 30 µM (inactive)	> 30 µM (inactive)	> 30 µM (inactive)	> 30 µM (inactive)	> 30 µM (inactive)	> 30 µM (inactive)	> 30 µM (inactive)	> 30 µM (inactive)	> 30 µM (inactive)	> 30 µM (inactive)
N[C@@H]1CCCN(c2c(/C=C3\SC(=O)NC3=O)cccc2-c2ccccc2)C1	> 30 µM (inactive)	> 30 µM (inactive)	> 30 µM (inactive)	> 30 µM (inactive)	> 30 µM (inactive)	> 30 µM (inactive)	> 30 µM (inactive)	> 30 µM (inactive)	> 30 µM (inactive)	> 30 µM (inactive)	> 30 µM (inactive)	> 30 µM (inactive)	> 30 µM (inactive)	> 30 µM (inactive)
CN1CCC(COc2cnc(-c3cccc(Cn4nc(-c5cccc(C#N)c5)ccc4=O)c3)nc2)CC1 [TEPOTINIB]	> 30 µM (inactive)	> 30 µM (inactive)	> 30 µM (inactive)	> 30 µM (inactive)	> 30 µM (inactive)	> 30 µM (inactive)	> 30 µM (inactive)	> 30 µM (inactive)	> 30 µM (inactive)	> 30 µM (inactive)	> 30 µM (inactive)	> 30 µM (inactive)	> 30 µM (inactive)	> 30 µM (inactive)
CCS(=O)(=O)N1CC(CC#N)(n2cc(-c3ncnc4[nH]ccc34)cn2)C1 [BARICITINIB]	> 30 µM (inactive)	> 30 µM (inactive)	> 30 µM (inactive)	> 30 µM (inactive)	> 30 µM (inactive)	> 30 µM (inactive)	> 30 µM (inactive)	> 30 µM (inactive)	> 30 µM (inactive)	> 30 µM (inactive)	> 30 µM (inactive)	> 30 µM (inactive)	> 30 µM (inactive)	> 30 µM (inactive)

Now from value to compound:

Kd [1]	Kd [2]	Kd [3]	Kd [4]	Kd [5]	Kd [6]	Kd [7]	Kd [8]	Kd [9]	Kd [10]	Kd [11]	Kd [12]	Kd [13]	Kd [14]	Structure (SMILES)
> 30 µM (inactive)	> 30 µM (inactive)	> 30 µM (inactive)	> 30 µM (inactive)	> 30 µM (inactive)	> 30 µM (inactive)	> 30 µM (inactive)	> 30 µM (inactive)	> 30 µM (inactive)	> 30 µM (inactive)	> 30 µM (inactive)	> 30 µM (inactive)	> 30 µM (inactive)	> 30 µM (inactive)	C[C@@H]1CN(Cc2ccc(F)cc2)[C@@H](C)CN1C(=O)c1cc2c(C(=O)C(=O)N(C)C)cn(C)c2cc1Cl [TALMAPIMOD]
> 30 µM (inactive)	> 30 µM (inactive)	> 30 µM (inactive)	> 30 µM (inactive)	> 30 µM (inactive)	> 30 µM (inactive)	> 30 µM (inactive)	> 30 µM (inactive)	> 30 µM (inactive)	> 30 µM (inactive)	> 30 µM (inactive)	> 30 µM (inactive)	> 30 µM (inactive)	> 30 µM (inactive)	CNC(=O)c1ccc(-c2cnc3ncc(Cc4ccc5ncccc5c4)n3n2)cc1F [CAPMATINIB]
> 30 µM (inactive)	> 30 µM (inactive)	> 30 µM (inactive)	> 30 µM (inactive)	7.4 µM (active)	1.4 µM	8.2 µM	> 30 µM (inactive)	> 30 µM (inactive)	> 30 µM (inactive)	> 30 µM (inactive)	> 30 µM (inactive)	> 30 µM (inactive)	> 30 µM (inactive)	CNC(=O)CN1CCC(Oc2cc3c(Nc4cccc(Cl)c4F)ncnc3cc2OC)CC1 [SAPITINIB]
> 30 µM (inactive)	> 30 µM (inactive)	> 30 µM (inactive)	> 30 µM (inactive)	> 30 µM (inactive)	> 30 µM (inactive)	> 30 µM (inactive)	> 30 µM (inactive)	> 30 µM (inactive)	> 30 µM (inactive)	> 30 µM (inactive)	> 30 µM (inactive)	> 30 µM (inactive)	> 30 µM (inactive)	CNC(=O)c1ccc(C)c(-n2c(C)cc(OCc3ccc(F)cc3F)c(Br)c2=O)c1 [PH-797804]
> 30 µM (inactive)	> 30 µM (inactive)	> 30 µM (inactive)	> 30 µM (inactive)	1.98 µM (active)	> 30 µM (inactive)	0.09 µM (active)	1.14 µM (active)	> 30 µM (inactive)	> 30 µM (inactive)	> 30 µM (inactive)	> 30 µM (inactive)	> 30 µM (inactive)	11.4 µM (active)	Cc1ccc(NC(=O)c2ccc(CN3CC[C@H](N(C)C)C3)c(C(F)(F)F)c2)cc1Nc1nccc(-c2cncnc2)n1 [BAFETINIB]
